According to patent US11225505B2, “Antimicrobial polymyxin derivative compounds” (MONASH UNIVERSITY, priority 2015, dated 2022):
In brackets after ≈: the same amount, converted by molar mass. Where a SMILES comes first, the peptide text is derived from it. Bridges are numbered along the chain shown (N, C = ends). [ ]: non-standard residue; d: D form. The star is where a group is joined. X57 = O=C(c1nc2cc(Cl)ccc2[nH]1)*; X23 = O=C(c1cc2ccccc2[nH]1)*; X27 = O=C(c1sc2ccccc2c1Cl)*; Dab = NCC[C@H](N)C(=O)O; Abu = CC[C@H](N)C(=O)O; Dap = NC[C@H](N)C(=O)O

Key:
Assay type in all cases: cell-based
[1] = tested on: Pseudomonas aeruginosa FADDI-PA038; conditions: FADDI-PA038
Outline: (§1)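 Lipopeptides (TFA salts) tested against Gram-negative strains by CLSI broth microdilution using cation-adjusted Mueller-Hinton broth; MIC recorded, polymyxin B sulphate as control.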

[2] = tested on: Pseudomonas aeruginosa FADDI-PA01; conditions: FADDI-
Outline: as §1

[3] = tested on: Acinetobacter baumannii ATCC 17978; conditions: ATCC 17978
Outline: as §1

[4] = tested on: Enterobacter cloacae FADDI-EC001; conditions: FADDI-EC001
Outline: (§2)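 Broth microdilution MIC per CLSI in cation-adjusted Mueller-Hinton broth, lipopeptides tested as TFA salts. Polymyxin B sulphate served as control.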

[5] = tested on: Klebsiella pneumoniae FADDI-KP022; conditions: FADDI-KP022
Outline: as §1

[6] = tested on: Enterobacter cloacae FADDI-EC003; conditions: FADDI-EC003
Outline: as §1

[7] = tested on: Klebsiella pneumoniae FADDI-KP032; conditions: FADDI-KP032
Outline: as §1

[8] = tested on: Pseudomonas aeruginosa FADDI-PA022; conditions: FADDI-PA022
Outline: as §1

[9] = tested on: Acinetobacter baumannii FADDI-AB034; conditions: FADDI-AB034
Outline: as §1

[10] = tested on: Pseudomonas aeruginosa ATCC 27853; conditions: ATCC 27853
Outline: as §1

[11] = tested on: Enterobacter cloacae FADDI-EC006; conditions: FADDI-EC006
Outline: as §1

[12] = tested on: Klebsiella pneumoniae Kp BM1; conditions: Kp BM1
Outline: as §2

[13] = tested on: Acinetobacter baumannii FADDI-AB030; assay: microbe, parasite or virus in culture; conditions: FADDI-AB030
Outline: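 Lipopeptide TFA salts tested against the multidrug-resistant clinical isolate by CLSI (M100-S24) broth microdilution in cation-adjusted Mueller-Hinton broth, with polymyxin B sulphate as control; MIC read.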

CC(C)C[C@H]1NC(=O)[C@H](CCN)NC(=O)[C@@H](NC(=O)[C@H](CN)NC(=O)[C@@H](NC(=O)[C@H](CCN)NC(=O)c2cc3ccccc3[nH]2)[C@@H](C)O)CCNC(=O)[C@H]([C@@H](C)O)NC(=O)[C@H](CCN)NC(=O)[C@H](CCN)NC(=O)[C@H](C)NC1=O [Compound 67] (X23-[Dab]T[Dap][Dab][Dab][dL]A[Dab][Dab]T; lactam 4-C)
Minimum inhibitory concentration [1]: 1 µg/mL (≈ 0.896 µM)
Minimum inhibitory concentration [2]: 0.5 µg/mL (≈ 0.448 µM)
Minimum inhibitory concentration [3]: 2 µg/mL (≈ 1.79 µM)
Minimum inhibitory concentration [4]: 0.5 µg/mL (≈ 0.448 µM)
Minimum inhibitory concentration [5]: 0.5 µg/mL (≈ 0.448 µM)
Minimum inhibitory concentration [6]: 0.5 µg/mL (≈ 0.448 µM)
Minimum inhibitory concentration [7]: 0.5 µg/mL (≈ 0.448 µM)
Minimum inhibitory concentration [8]: 0.25 µg/mL (≈ 0.224 µM)
Minimum inhibitory concentration [9]: 1 µg/mL (≈ 0.896 µM)
Minimum inhibitory concentration [10]: 0.25 µg/mL (≈ 0.224 µM)
Minimum inhibitory concentration [11]: 1 µg/mL (≈ 0.896 µM)
Minimum inhibitory concentration [12]: 0.5 µg/mL (≈ 0.448 µM)
Minimum inhibitory concentration [13]: 1 µg/mL (≈ 0.896 µM)

CC(C)C[C@H]1NC(=O)[C@H](CCN)NC(=O)[C@@H](NC(=O)[C@H](CN)NC(=O)[C@@H](NC(=O)[C@H](CCN)NC(=O)c2sc3ccccc3c2Cl)[C@@H](C)O)CCNC(=O)[C@H]([C@@H](C)O)NC(=O)[C@H](CCN)NC(=O)[C@H](CCN)NC(=O)[C@H]([C@@H](C)O)NC1=O [Compound 68] (X27-[Dab]T[Dap][Dab][Dab][dL]T[Dab][Dab]T; lactam 4-C)
Minimum inhibitory concentration [1]: 1 µg/mL (≈ 0.835 µM)
Minimum inhibitory concentration [2]: 0.5 µg/mL (≈ 0.417 µM)
Minimum inhibitory concentration [3]: 0.25 µg/mL (≈ 0.209 µM)
Minimum inhibitory concentration [4]: <0.125 µg/mL
Minimum inhibitory concentration [5]: <0.125 µg/mL
Minimum inhibitory concentration [6]: <0.125 µg/mL
Minimum inhibitory concentration [7]: 0.25 µg/mL (≈ 0.209 µM)
Minimum inhibitory concentration [8]: 0.25 µg/mL (≈ 0.209 µM)
Minimum inhibitory concentration [9]: <0.125 µg/mL
Minimum inhibitory concentration [10]: 0.25 µg/mL (≈ 0.209 µM)
Minimum inhibitory concentration [11]: 0.25 µg/mL (≈ 0.209 µM)
Minimum inhibitory concentration [12]: 0.25 µg/mL (≈ 0.209 µM)
Minimum inhibitory concentration [13]: <0.125 µg/mL

CC(C)C[C@H]1NC(=O)[C@H](CCN)NC(=O)[C@@H](NC(=O)[C@H](CN)NC(=O)[C@@H](NC(=O)[C@H](CCN)NC(=O)c2sc3ccccc3c2Cl)[C@@H](C)O)CCNC(=O)[C@H]([C@@H](C)O)NC(=O)[C@H](CCN)NC(=O)[C@H](CCN)NC(=O)[C@H](C)NC1=O [Compound 69] (X27-[Dab]T[Dap][Dab][Dab][dL]A[Dab][Dab]T; lactam 4-C)
Minimum inhibitory concentration [1]: 2 µg/mL (≈ 1.71 µM)
Minimum inhibitory concentration [2]: 0.5 µg/mL (≈ 0.428 µM)
Minimum inhibitory concentration [3]: 0.25 µg/mL (≈ 0.214 µM)
Minimum inhibitory concentration [4]: 1 µg/mL (≈ 0.856 µM)
Minimum inhibitory concentration [5]: <0.125 µg/mL
Minimum inhibitory concentration [6]: 0.25 µg/mL (≈ 0.214 µM)
Minimum inhibitory concentration [7]: 0.25 µg/mL (≈ 0.214 µM)
Minimum inhibitory concentration [8]: 0.5 µg/mL (≈ 0.428 µM)
Minimum inhibitory concentration [9]: 0.25 µg/mL (≈ 0.214 µM)
Minimum inhibitory concentration [10]: 0.5 µg/mL (≈ 0.428 µM)
Minimum inhibitory concentration [11]: 0.25 µg/mL (≈ 0.214 µM)
Minimum inhibitory concentration [12]: 0.25 µg/mL (≈ 0.214 µM)
Minimum inhibitory concentration [13]: 0.25 µg/mL (≈ 0.214 µM)

CC[C@@H]1NC(=O)[C@@H](CC(C)C)NC(=O)[C@H](CCN)NC(=O)[C@@H](NC(=O)[C@H](CN)NC(=O)[C@@H](NC(=O)[C@H](CCN)NC(=O)c2nc3cc(Cl)ccc3[nH]2)[C@@H](C)O)CCNC(=O)[C@H]([C@@H](C)O)NC(=O)[C@H](CCN)NC(=O)[C@H](CCN)NC1=O [Compound 71] (X57-[Dab]T[Dap][Dab][Dab][dL][Abu][Dab][Dab]T; lactam 4-C)
Minimum inhibitory concentration [1]: 2 µg/mL (≈ 1.72 µM)
Minimum inhibitory concentration [2]: 0.25 µg/mL (≈ 0.214 µM)
Minimum inhibitory concentration [3]: 0.5 µg/mL (≈ 0.429 µM)
Minimum inhibitory concentration [4]: 0.25 µg/mL (≈ 0.214 µM)
Minimum inhibitory concentration [5]: <0.125 µg/mL
Minimum inhibitory concentration [6]: <0.125 µg/mL
Minimum inhibitory concentration [7]: <0.125 µg/mL
Minimum inhibitory concentration [8]: 0.5 µg/mL (≈ 0.429 µM)
Minimum inhibitory concentration [9]: 0.5 µg/mL (≈ 0.429 µM)
Minimum inhibitory concentration [10]: 0.5 µg/mL (≈ 0.429 µM)
Minimum inhibitory concentration [11]: <0.125 µg/mL
Minimum inhibitory concentration [12]: <0.125 µg/mL
Minimum inhibitory concentration [13]: 0.25 µg/mL (≈ 0.214 µM)
